Earlier results, collected in publication PMC4846294 (Bioorganic & medicinal chemistry, 2016).
Marks after values point to notes of the source that are not given here.

What was measured:
NCI-H460 (lung) = details: read-out: GI50 SRB Assay NCI-H460; cited from earlier work
DU-145 (prostate) = details: read-out: GI50 SRB Assay DU-145; cited from earlier work
SK-OV-3 (ovarian) = details: read-out: GI50 SRB Assay SK-OV-3; cited from earlier work
tubulin = details: inhibitor 5 μM; cited from earlier work
[1] = tested on: purified bovine brain tubulin; details: read-out: Inhibition of Tubulin Polymerization IC50; cited from earlier work

COc1ccc(/C=C\c2cc(OC)c(OC)c(OC)c2)c(O)c1O [CA1, combretastatin A-1]
GI50 (NCI-H460 (lung)): 0.0153 ± 0.0158 µM
GI50 (DU-145 (prostate)): 0.0326 ± 0.0173 µM
GI50 (SK-OV-3 (ovarian)): 0.0384 ± 0.0242 µM
Inhibition of Colchicine Binding (% Inhibition±SD) (tubulin): 99.6±0.7^b %
IC50 [1]: 1.9 µM
